{"source": "patent US20080003280A1", "about": "“Combination cough treatment compounds and method of treating common coughs” (priority 2006, published 2008)", "origin": "cited, not measured here", "key": {"[1]": {"tested_on": "cough induced with a capsaicin challenge"}, "cough [2]": {"tested_on": "cough", "conditions": "patients with an upper respiratory tract infection; in combination with a decongestant"}, "cough [3]": {"tested_on": "cough"}}}
{"compound": "Cn1cnc2c1c(=O)[nH]c(=O)n2C", "note": "[Theobromine, 3,7-dihydro-3,7-dimethyl-1H-purine-2,6-dione]", "values": [{"measurement": "mucociliary clearance", "setting": "[1]; discovered in the same study", "value": "stimulates mucociliary clearance"}, {"measurement": "toxicity", "setting": "[1]; discovered in the same study", "value": "low toxicity"}, {"measurement": "antitussive effect", "setting": "[1]; patients, capsaicin challenge, in comparison to codeine and caffeine, FIG. 2", "value": "strong and long lasting antitussive effect, comparable, in fact to codeine"}]}
{"compound": "CN(C)CCC(c1ccc(Br)cc1)c1ccccn1", "note": "(stereo not drawn) [brompheniramine]", "values": [{"measurement": "effect on cough", "setting": "cough [2]", "value": "improvement in cough"}]}
{"compound": "COc1ccc2c(c1)[C@]13CCCC[C@@H]1[C@H](C2)N(C)CC3", "note": "[dextromethorphan]", "values": [{"measurement": "cough suppression", "setting": "cough [3]; 60 mg/dose in adults", "value": "Significant cough suppression"}, {"measurement": "antitussive effect", "setting": "cough [3]; adults, dose 15-30 mg (30 mg in FIG. 4), versus placebo", "value": "no greater than placebo"}]}
